Test systems include SK-OV-3; SF-268; CAKI-1; SN12C; OVCAR-5; UACC-257; UO-31; SNB-19; EKVX; U-251; OVCAR-3; RXF 393; HOP-62; SF-539; K562; MOLT-4; T47D; MDA-N; MDA-MB-435.
Holding throughout (experiment): NCI tumour cell line growth inhibition, 48 h

SMILES strings stand for the structures.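 48-hour exposure; five concentrations; linearly interpolated endpoints. At the GI50, growth is halved.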 Calls of active or inactive are those of the source. Rule as the data show it: active = GI50 up to about 1.1 µM and inactive = higher.

For the compound `Cc1nc2c(N)ncnc2o1`, the GI50 in the test on SK-OV-3, in the test on SF-268, with CAKI-1, with SN12C, in the test with OVCAR-5 and in the test on UACC-257 was > 100 µM (inactive) in each case. For the same compound, the GI50 in the test on UO-31, in the test on SNB-19, in the test with EKVX, with U-251, with OVCAR-3 and in the test on RXF 393 was > 100 µM (inactive) each time. The GI50 with HOP-62, in the test with SF-539, in the test on K562 and in the test on MOLT-4 was > 100 µM (inactive) each time.
Take `CN/N=C(\C)CC(=O)Nc1cccc(Cl)c1C`: the GI50 in the test with SK-OV-3, with SF-268, in the test with CAKI-1, with SN12C, in the test on OVCAR-5 and with UACC-257 was > 100 µM (inactive) throughout. Further, the GI50 in the test on UO-31, in the test with SNB-19, in the test on EKVX, in the test on U-251, in the test on OVCAR-3 and with RXF 393 was > 100 µM (inactive) in each case. In addition, the GI50 in the test with HOP-62, in the test with SF-539, in the test on K562 and with MOLT-4 was > 100 µM (inactive) in each case.
`CCCCN(CCCC)CCCn1cnc2ncccc2c1=O`: the GI50 with SK-OV-3, in the test with SF-268, in the test with CAKI-1, in the test with SN12C, in the test with OVCAR-5 and with UO-31 was > 100 µM (inactive) throughout. Also, the GI50 in the test with SNB-19, in the test on EKVX, in the test with U-251, in the test with OVCAR-3, in the test with RXF 393 and in the test on HOP-62 was > 100 µM (inactive) throughout. In addition, the GI50 in the test on SF-539, in the test on K562 and in the test on MOLT-4 was > 100 µM (inactive) each time.
As for `Cc1cc(N)c2cc(NC(=O)CCCCCCCCC(=O)Nc3ccc4nc(C)cc(N)c4c3)ccc2n1`, the GI50 in the test with SK-OV-3 was > 68.4 µM (inactive); with SF-268, 29.6 µM (inactive); with CAKI-1, > 100 µM (inactive); with SN12C, 3.87 µM (inactive); with OVCAR-5, > 56 µM (inactive); in the test with UACC-257 it was > 50.4 µM (inactive). Further, the GI50 in the test with UO-31 was > 100 µM (inactive); with SNB-19, > 38.4 µM (inactive); in the test with EKVX, 36.3 µM (inactive); in the test on U-251, 18.4 µM (inactive); in the test with OVCAR-3, 98.6 µM (inactive); in the test with RXF 393, > 65.3 µM (inactive). In addition, the GI50 with HOP-62 is > 61.9 µM (inactive); with SF-539, 16.8 µM (inactive); in the test on K562 it was 16.9 µM (inactive); in the test with MOLT-4, 5.07 µM (inactive).
For the compound `Cc1cc2c(=O)c3ccc(Cl)cc3[nH]c2c(C(=O)O)c1C`, the GI50 with SK-OV-3, in the test on SF-268, in the test with CAKI-1, with SN12C, in the test with OVCAR-5 and in the test on UACC-257 was > 100 µM (inactive) in each case. Further, the GI50 is 46.1 µM (inactive) in the test on UO-31; > 100 µM (inactive) in the test on SNB-19; > 100 µM (inactive) in the test on EKVX; > 100 µM (inactive) in the test on U-251; > 100 µM (inactive) in the test on OVCAR-3; 47.5 µM (inactive) in the test on RXF 393. Also, the GI50 with HOP-62, with SF-539, with K562 and with MOLT-4 was > 100 µM (inactive) in each case.
Take `CC(C)C1COC(c2ccc3ccccc3c2-c2c(O[Si](C)(C)C(C)(C)C)ccc3ccccc23)=N1` (centres undefined): the GI50 was 19.8 µM (inactive) with SK-OV-3; 17.9 µM (inactive) in the test with SF-268; 21.9 µM (inactive) with CAKI-1; 16.6 µM (inactive) in the test with SN12C; 18.4 µM (inactive) with OVCAR-5; 18.2 µM (inactive) in the test on UACC-257. Moreover, the GI50 in the test on UO-31 was 14.8 µM (inactive); in the test with SNB-19 it was 14.9 µM (inactive); in the test with EKVX, 19.1 µM (inactive); in the test on OVCAR-3, 17.3 µM (inactive); in the test on RXF 393 it was 18.8 µM (inactive); with HOP-62 it was 18.8 µM (inactive). Also, the GI50 was 16.9 µM (inactive) in the test with SF-539, 16.6 µM (inactive) in the test on K562 and 15.6 µM (inactive) in the test with MOLT-4.
With `COc1c2c(cc3c1C(=O)Cc1ccc4c(c1CN(C)CC3)OCO4)OCO2`, the GI50 was > 100 µM (inactive) in the test on SK-OV-3; > 100 µM (inactive) with SF-268; 79.3 µM (inactive) with CAKI-1; > 100 µM (inactive) in the test with SN12C; 29.3 µM (inactive) with OVCAR-5; > 100 µM (inactive) in the test on UACC-257. Further, the GI50 with UO-31 was 12.2 µM (inactive); in the test on SNB-19, > 100 µM (inactive); in the test on EKVX it was > 100 µM (inactive); with U-251, 86.9 µM (inactive); in the test with OVCAR-3, > 100 µM (inactive); in the test with RXF 393 it was > 100 µM (inactive). For the same compound, the GI50 was > 100 µM (inactive) in the test on HOP-62, > 100 µM (inactive) in the test with SF-539, 28.8 µM (inactive) in the test with K562 and 36.7 µM (inactive) with MOLT-4.
With `CC(=O)Nc1ccc(OCC(O)CO)cc1` (centres undefined), the GI50 in the test with SK-OV-3, in the test with SF-268, in the test on CAKI-1, in the test on SN12C, in the test with OVCAR-5 and in the test with UACC-257 was > 100 µM (inactive) in each case. For the same compound, the GI50 in the test on UO-31 was > 100 µM (inactive); in the test on SNB-19, > 100 µM (inactive); in the test on EKVX, > 100 µM (inactive); with U-251, 56.5 µM (inactive); in the test with OVCAR-3, > 100 µM (inactive); with RXF 393 it was > 100 µM (inactive). Moreover, the GI50 is > 100 µM (inactive) with HOP-62, > 100 µM (inactive) with SF-539, 16.8 µM (inactive) in the test with K562 and > 100 µM (inactive) in the test on MOLT-4.
With `CC(=O)/C=C/c1ccc(C2CC(C)=Nc3c(ccc4c3C(=O)c3ccccc3C4=O)N2)cc1` (centres undefined), the GI50 in the test with SK-OV-3 is 15.9 µM (inactive); with SF-268 it was > 71 µM (inactive); with CAKI-1, 6.98 µM (inactive); with SN12C, > 81.5 µM (inactive); in the test with OVCAR-5, > 86.5 µM (inactive); in the test with UO-31 it was 4.88 µM (inactive). In addition, the GI50 in the test with SNB-19 is > 100 µM (inactive); in the test with EKVX it was 27.3 µM (inactive); in the test on U-251 it was 59.7 µM (inactive); in the test on OVCAR-3 it was > 93.8 µM (inactive); in the test on RXF 393, 92 µM (inactive); in the test with HOP-62, 58.1 µM (inactive). Also, the GI50 is 63.8 µM (inactive) in the test on SF-539, > 57.5 µM (inactive) in the test with K562 and > 100 µM (inactive) in the test with MOLT-4.
As for `C[C@@H](NC(=O)OC1C=CC2(CC1)C(=O)N(C)c1ccccc12)c1cccc2ccccc12` (some centres undefined), the GI50 was > 25 µM (inactive) with SK-OV-3; 7.36 µM (inactive) in the test with SF-268; 7.26 µM (inactive) in the test on T47D; 15.5 µM (inactive) with MDA-N; > 25 µM (inactive) in the test on CAKI-1; > 25 µM (inactive) in the test with SN12C. Also, the GI50 in the test with OVCAR-5 is > 25 µM (inactive); with UACC-257, 12.2 µM (inactive); with UO-31, > 25 µM (inactive); in the test on SNB-19, > 25 µM (inactive); in the test on EKVX, 12 µM (inactive); in the test on U-251, > 25 µM (inactive). Besides, the GI50 in the test on OVCAR-3 was > 25 µM (inactive); with HOP-62 it was > 25 µM (inactive); in the test on K562 it was 15.1 µM (inactive); with MOLT-4, 5.93 µM (inactive); in the test on MDA-MB-435 it was 9.57 µM (inactive).
For `COC(=O)C(Cc1c[nH]c2ccccc12)NC(=O)C(Cc1c[nH]c2ccccc12)NC(=O)OCc1ccccc1` (centres undefined), the GI50 in the test on SK-OV-3 is 19.7 µM (inactive); in the test with SF-268, 19.1 µM (inactive); with CAKI-1 it was 19.9 µM (inactive); in the test with SN12C, 17.1 µM (inactive); with OVCAR-5, 17.6 µM (inactive); in the test with UACC-257 it was > 100 µM (inactive). Besides, the GI50 is 19.3 µM (inactive) in the test on UO-31; 17.5 µM (inactive) in the test with SNB-19; 18.6 µM (inactive) with EKVX; 16.9 µM (inactive) with U-251; 15.5 µM (inactive) in the test on OVCAR-3; 19.5 µM (inactive) in the test on RXF 393. The GI50 was 19.7 µM (inactive) with HOP-62, 16.7 µM (inactive) in the test with SF-539 and 23.6 µM (inactive) with K562.
Regarding `C=CC1=CC(C)C[C@]1(O)C(=O)OC` (some centres undefined), the GI50 in the test on SK-OV-3 is > 100 µM (inactive); in the test on SF-268, < 0.01 µM (active); in the test with CAKI-1, < 0.01 µM (active); with SN12C, < 0.01 µM (active); in the test with OVCAR-5, < 0.01 µM (active); in the test on UACC-257, < 0.01 µM (active). In addition, the GI50 in the test with UO-31, with SNB-19, in the test on EKVX, in the test with U-251, with OVCAR-3 and with RXF 393 was < 0.01 µM (active) in each case. The GI50 is < 0.01 µM (active) in the test on HOP-62, > 100 µM (inactive) in the test with SF-539, < 0.01 µM (active) in the test on K562 and < 0.01 µM (active) with MOLT-4.

Source of the values: ChEMBL document CHEMBL1201862, “PubChem BioAssay data set” (2004).
